Measurements reported in patent US10231958B2, “Methods and compositions for enhancing chemotherapy” (THE BOARD OF REGENTS OF THE UNIVERSITY OF TEXAS SYSTEM, priority 2015, dated 2019).
≈ marks a conversion by molar mass, not a printed value. Entries after “also recorded” stand apart in the source; their conditions may differ.

Legend:
MEFs = test: Gene expression microarray in MEFs; format: cell-based, mouse; conditions: 24 h
Experimental: For microarray, 7.5×10^6 Kc167 Drosophila cells or 5×10^6 wild-type MEFs were seeded in T-75 cell culture flask in complete growth medium one day before treatments. On the following day, the medium was replenished with fresh growth medium or medium consisting of MMS at 40 μg/mL. Cells were harvested and pelleted at different times post treatment (0, 1, 8, 24 and 72 h), washed using ice cold phosphate buffered saline (PBS) and the RNA was extracted using the RNeasy kit protocol (Qiagen). RNA integrity was assessed by denaturing formaldehyde agarose gel electrophoresis or by microanalysis (Agilent Bioanalyzer, Santa Clara, Calif.). Microarray service was provided by Expression Analysis Inc., Durham, N.C. Affymetrix GeneChip Drosophila Genome 2.0 Array was used for the experiment performed using Kc167 cells, and Affymetrix GeneChip Mouse Genome 430A 2.0 Array was used for experiment performed using MEFs. The microarray service provided by Expression Analysis Inc., included group comparison between experimental control and MMS treatment and time course analysis based on permutation analysis of differential expression (PADE). For statistical comparison, each experiment was performed in quadruplicate.

[1] = system: MAPKs (ERK1/2, JNK1/2 and p38) and ATF2; test: Western blot of MAPK phosphorylation; format: cell-based; conditions: 8 h
Experimental: Western blot. Protein lysates were prepared using RIPA buffer containing 5% sodium deoxycholate, 0.1% SDS, 0.1% Igepal in PBS with a cocktail of protease and phosphatase inhibitors (1 mM PMSF, 1 mM sodium orthovanadate, 1 mM NaF, and 30 μL/mL aprotinin (Sigma-Aldrich, USA)) and clarified by centrifugation. Protein concentration was determined using Bradford Protein Assay Reagent (Biorad, Hercules, Calif.). Equal amounts of protein were resolved using 8-12% SDS polyacrylamide gel, transferred onto nitrocellulose membranes (Hybond-ECL, GE Healthcare Lifesciences, Piscataway, N.J.) and detected using Lumiglo system (Cell Signaling Technology, Calif.) and x-ray films. Primary antibodies included COX-2 (#4842), NRF2 (D1C9), p-JNK1/2 (Thr183/Tyr185, #4671), p-p38 (Thr180/Tyr182, #9216), p-ERK1/2 (Thr202/Tyr204, #9101), BiP/GRP78 (C50B12), IRE1a (14C10), CHOP (L63F7) and PERK (D11A8) from Cell Signaling Technology; p-IRE1a (Ser724; NB100-2323) from Novus Biologicals; GCLC (Ab41463), beta-actin (ab8227) and ATF6 (Ab37149) from Abcam; p-PERK (Thr 981, sc-32577) and ATF3 (C19) were purchased from Santa Cruz. All primary antibodies were used at 1:1000 dilutions and secondary antibodies were 1:3000 in TBS-T with 5% BSA.

[2] = system: NFκB-responsive firefly luciferase construct in MDA-MB231 cells; test: NFκB gene reporter assay; format: cell-based, human
Experimental: (§1) Prior to transfection, cells were plated in 96-well plates to 80-90% confluence (100 μL antibiotic free-medium) after 24 h. When used, siRNA were incubated by reverse transfection during cells seeding. […] A mixture of non-inducible firefly luciferase construct and constitutively expressing Renilla luciferase construct (40:1) were used as negative controls. Approximately 24 h post-transfection, the medium was changed and the cells were treated for 12 h with alkylating agents (with/out 6 h pre-treatments). At the end of this period, medium was changed to drug-free fresh medium (to minimize the effect of alkylating toxicity on promoters activity) and cells were kept for an additional 12 h.

IL8, MMP1, MMP3 and PGE2 = test: ELISA of inflammatory mediators in culture medium; format: cell-based, human
Experimental: Quantification of MMP1 and MMP3 content in culture medium was assessed using RayBio-MMP3 and RayBio-MMP1 Elisa Kit (RayBiotech, Inc); IL8 was analyzed by Human IL-8 Elisa kit (Pierce Biotechnology). The levels of prostaglandin E2 (PGE2) were determined using the Prostaglandin E2 EIA Kit Monoclonal (Cayman Chemical Company). Culture media were diluted to fit within the standard curves. For conditioned media (CM) preparation for invasion and in vitro angiogenesis experiments, 12-well plated cells were treated with MMS (or MMS plus inhibitors) for 8 h in the presence of 10% FBS, twice washed with HBSS, and incubated with 700 μL drug/serum-free fresh medium for additional 12 h. Thereafter, the conditioned fresh medium was collected and directly used for migration and invasion experiments in order to reduce freezing associated loss of activity.

[3] = system: AP1-responsive firefly luciferase construct in MDA-MB231 cells; test: AP-1 gene reporter assay; format: cell-based, human
Experimental: as §1

[4] = system: Kc167 cells, MEFs, and MDA-MB231 breast cancer cells; test: Cell viability (CellTiter-Glo); format: cell-based, D. melanogaster, mouse, human; conditions: Drosophila melanogaster, MDA-MB-231, 24 h
Experimental: The D. melanogaster embryonic cell line Kc167 was grown in Schneider medium (Invitrogen, Carlsbad, Calif.) supplemented with 10% heat-inactivated (56° C./30 min) fetal bovine serum (FBS), penicillin and streptomycin at 22° C. in a humidified incubator. Primary MEFs were obtained by harvesting 14.5-day C57BL/6J embryos as previously described (Ravi et al., 2009, PLoS Genet 5, e1000527). Briefly, fetal liver and head were removed and the remainder of the embryo was mechanically disaggregated in plating medium. A suspension of single-cells was plated in DMEM (plus 10% FBS, 100 U/mL penicillin and 100 μg/mL streptomycin). MEFs were grown for two passages before freezing aliquots. Aliquots were taken and expanded as needed for each experiment. MDA-MB231, SkBr3 and MCF-7 breast cancer cells lines were obtained from ATCC and grown in DMEM supplemented with 10% inactivated FBS plus antibiotics in a 37° C. humidified incubator at […] atmosphere. Cells were kept and treated in the exponential phase of growing (60-70% confluence). […] DMSO concentrations were kept to a maximum of 0.1% for all experiments. Cell viability was assessed using CellTiter-Glo Luminescent Viability assay (Promega) in 384 or 96-well plates white-border clear-bottom plated cells. For caspase-3/7 activity, Caspase-Glo 3/7 Assay kits were used (Promega). For caspase assays, the cells were seeded in 96-well plates and assayed directly after treatments. Caspase-3/7 inhibitor (Z-DEVD-fmk) was used to ensure assay specificity. LDH release into culture medium was quantified by Cytotox-96 Non-Radioactive assay kit in agreement with instructions (Promega).

[5] = MDA-MB231, pre-incubation with inhibitor

Compound | up-regulation of CAT expression (MEFs) | phosphorylation of MAPK ([1]; MDA-MB231 and MEF) | activation of NFκB luciferase reporter ([2]; alkylating agent alone) | production of IL-8, MMP-1 and MMP-3 (IL8, MMP1, MMP3 and PGE2; MDA-MB231 culture medium) | prostaglandin E2 (PGE2) in culture medium and COX-2 protein in lysates (IL8, MMP1, MMP3 and PGE2; human cancer cells, 12 h) | activation of AP-1 luciferase reporter ([3]; alkylating agent alone) | IC90 [4] | effect on MMS-induced MAPK phosphorylation ([1]; MDA-MB231 cells) | effect on MMS-induced activation of NFκB reporter [2, 5] | effect on MMS/alkylation-induced IL8, MMP1, MMP3 and PGE2 secretion and COX-2 (IL8, MMP1, MMP3 and PGE2; MDA-MB231, 12 h) | effect on MMS-induced activation of AP-1 reporter [3, 5]
COS(C)(=O)=O [MMS, methyl-methanesulfonate] | 2.7 fold | increased phosphorylation of the three MAPK | activated both NFκB and AP-1 luciferase reporter constructs | enhances the production of MMP1, MMP3 and IL8 | increased levels of prostaglandin E2 (PGE2) | activated both NFκB and AP-1 luciferase reporter constructs | 80 µg/mL (≈ 726 µM) |  |  |  | 
CNC(=O)c1cc(Oc2ccc(NC(=O)Nc3ccc(Cl)c(C(F)(F)F)c3)cc2)ccn1 [sorafenib, 4-[4-[[4-chloro-3-(trifluoromethyl)phenyl]carbamoylamino]phenoxy]-N-methyl-pyridine-2-carboxamide] |  |  |  |  |  |  |  | blocked both MMS-induced phosphorylation of ERK1/2 and JNK1/2 as well as basal ERK1/2 | strong inhibitory effects on both promoters; also recorded: blocked NFκB and AP-1 promoter activation | exerted the strongest effect in blocking alkylation-induced IL8, COX-2/PGE2, MMP1 and 3 | strong inhibitory effects on both promoters; also recorded: blocked NFκB and AP-1 promoter activation
